Reference: patent US5877185A, “Synergistic compositions useful as anti-tumor agents” (priority 1995, dated 1999)

Experiments:
AA-2 leukemia cells = experiment: cytocidal effect in combination with ascorbate; conditions: for protection against apoptosis-inducing action: 160 μM ascorbate, 18 hr of drug exposure; for cell number Day 1 / cell number Day 2: alone or with ascorbate 160 μM; for cell number Day 1: 18 hr; for cell number Day 2: 42 hr
Method: Because of the in vitro reactivity of the nitroso group of INOBA with both ascorbate and GSH, the apoptosis-inducing effect of NOBA with the action of the prodrug INO2 BA in the presence of ascorbate, added simultaneously with both drugs was compared.
AA-2 cells were seeded at a density of 0.2×10^6 cells/ml. Drugs and/or sodium ascorbate were added at the time of seeding, and cells were counted by hemacytometer after incubation (37° C., 5% CO^2) for 18 hr (Day 1) and for 42 hr (Day 2). Viability was evaluated by Trypan Blue exclusion.

SIVmac in CEM ×174 cells = experiment: SIVmac replication in CEM ×174 cells, reverse transcriptase assay; type: cell-based, SIV; conditions: for effect on SIVmac replication in pre-infected cells: cells pre-infected one day prior to treatment
Method: CEM ×174 cells (3×10^5 /ml) were infected with 3.75 TCID50 /ml (50% tissue culture infectious dosage per ml of cell suspension) stock solution of SIVmac239 or virus isolates from SIVmac239-infected rhesus macaques on day 0. Uniform infection of cells was ensured by the infection of one cell population only per virus preparation. Three days post-infection, the cells were distributed (500 μl/well) into individual wells of a 24-well plate. Fresh medium containing INO2 BA concentrations ranging from 0 to 300 μM and/or BSO concentrations ranging from 0 to 0.25 mM were added to establish final 1-ml reaction volumes, and the cultures were further incubated for 4 days. The wells were then replenished with fresh CEM ×174 cells (3×10^5 /ml), INO2 BA and/or BSO were re-added at the same concentrations as in the original incubates, and incubation was continued for an additional 3 days. This procedure intends to mimic conditions of in vivo chemotherapy. Cell viability and virus titers in the supernatant were determined on day 10 (3 days after the addition of new cells) by the tetrazolium (MTT) method of Hansen et al., J. Immunol. Methods 119:208-210 (1982) and by the SIV p27 and reverse transcriptase (RT) assays described by Chuang et al., FEBS Lett. 326:140-144 (1993), respectively.
To evaluate the activity of SIV reverse transcriptase, 10 μl of infected cell supernatant was added to a reaction mixture containing 50 mM Tris-HCl (pH 8.0), 5 mM MgCl2, 10 mM dithiothreitol, 20 mM KCl, and 1% Triton X-100 in a total volume of 50 μl. Poly(rA):oligo (dT)12-18 was present at 100 μg/ml and 2.4 μM [^3 H]TTP was used. The reaction mixtures were incubated at 37° C. for 1 hr and the TCA-precipitableradioactivity was filtered onto nitrocellulose filters which were then washed, dried and counted.
The effect of INO2 BA on SIVmac replication in CEM ×174 cells that were pre-infected with virus for one day prior to treatment with INO2 BA are shown in FIG. 6. The cell culture and SIV reverse transcription assay were performed as described in Example XIV.

L-1210 cells = experiment: time course of cell killing alone and with BSO, L-1210; type: cell-based, murine; conditions: L-1210, 2-3 day period; 1 mM BSO
Method: (§1) Molt 4-cells were seeded at a density of 0.05×10^6 cell/ml in the recommended growth medium in the absence or the presence of drugs as indicated. Cells were incubated at 37° C. in a 5% CO2 atmosphere and proliferation was monitored in 14 hr. by cell counting in a hemacytometer. .smallcircle., untreated control; .circle-solid., treated with 4 μM 4-iodo-3-nitrobenzoic acid; .gradient., treated with 1 mM BSO; .tangle-soliddn., treated with 4 μM-iodo-3-nitrobenzoic acid and 1 mM BSO; .quadrature., treated with 4 μM 4-INO2 BA; .box-solid., treated with 1 mM BSO; .gradient., treated with 4 μM INO2 BA and 1 mM BSO. L-1210 cells were seeded at a density of 0.05×10^6 cells/ml either from untreated stock suspensions or from 24-hr. pretreated (0.2×10^6 cells/ml) suspensions. .smallcircle., untreated control; .circle-solid., treated with […] NOBA; .gradient., treated with 1 mM BSO; .tangle-soliddn., 24-hr pretreatment with 1 mM BSO then treated with 4 μM NOBA.
(§2) A time course of the cell killings by 4-iodo-3-nitrobenzoic acid, INO2 BA and NOBA, each alone and in combination with BSO was obtained. Molt-4 cells were seeded at a density of 0.05×10^6 cells/ml in the recommended growth medium in the absence or presence of drugs as indicated in FIG. 3. Drugs were added to the wells immediately after seeding from 10-40 mM stock solution in DMSO. BSO was added from a 100 mM aqueous stock solution. Cells were incubated at 37° C. in a 5% CO2 atmosphere and proliferation was monitored in 14 hours by cell counting in a hemacytometer.

Molt-4 cells = experiment: time course of cell killing alone and with BSO, Molt-4; type: cell-based; conditions: Molt-4, 2-3 day period; 4 μM drug, 1 mM BSO
Method: as §1, §2

HIV-1 (LAV strain) = experiment: in vitro anti-retroviral testing (HIV-1 inactivation) in human peripheral lymphocytes (PBL); type: cell-based
Method: Both 6-NOBP and NOBA were tested on viral growth of HIV-1 (LAV strain) in phytohemagglutinin-stimulated human peripheral lymphocytes (PBL). An HIV-1 stock having an infectivity titer of 100,000 TCID50 was incubated for 30 min. at 22° C. with either of the drugs. Control HIV samples, containing no drugs, were incubated in the same manner. […] At the end of this incubation cultures were assayed for productive infection by an immunoassay for HIV-1 antigens and by reverse transcriptase as described in McDougal et al., J. Immunol. Methods 76:171-183 (1985). Virus titers were expressed as percentile values (percent infected cultures) compared to the controls, containing HIV dilutions which were not preincubated with the C-nitroso drugs. In a separate series of experiments, HIV-1 dilutions and C-nitroso drugs (see upper abscissa) were not preincubated but were added simultaneously to lymphocytes in exactly the same concentrations as described previously (i.e., following preincubation) and viral growth monitored 9 days later.

neutrophil granulocytes = conditions: tumoricidal concentrations; cited from earlier work
HIV-1 NC zinc fingers = conditions: isolated HIV-1 NC zinc fingers and intact HIV-1 virions; cited from earlier work
HIV-1 (MN strain) = experiment: infectivity of NOBA-treated HIV-1 virions; type: cell-based; conditions: 3000 or 6000 μM NOBA, 37° C.
[1] = 42 h, read-out: dead cells Day 2

| SMILES | protection against apoptosis-inducing action (AA-2 leukemia cells) | cytotoxicity at 16 µM (AA-2 leukemia cells; [1]) [%] | cell number Day 1 (AA-2 leukemia cells; INO2 BA 16 μM) [mL⁻¹] | cell number Day 2 (AA-2 leukemia cells; INO2 BA 16 μM) [mL⁻¹] | reverse transcriptase activity (SIVmac in CEM ×174 cells; SIV-infected CEM ×174 cells, FIG. 6) | effect on SIVmac replication in pre-infected cells (SIVmac in CEM ×174 cells) | effect on cell proliferation (L-1210 cells) | effect on cell proliferation (Molt-4 cells) | TCID50 (calculated infectious titer after treatment) (HIV-1 (LAV strain); 100 μM) [TCID50] | decrease of relative amount of infectious virus available to cause 50% infected cultures (HIV-1 (LAV strain); 30 min. at 22° C., FIG. 7A) [log units] | log reduction at 100 µM (HIV-1 (LAV strain); Human immunodeficiency virus 1, Lymphocyte, 0.5 h, 100 μM, of TCID50, read-out: Decrease) | inhibition at 100 µM (HIV-1 (LAV strain); Human immunodeficiency virus 1, Lymphocyte, 100 μM) [%] | effect on superoxide formation by neutrophil granulocytes (neutrophil granulocytes) | cytotoxicity at 32 µM (AA-2 leukemia cells; [1]) [%] | cell number Day 1 (AA-2 leukemia cells; NOBA 32 μM) [mL⁻¹] | cell number Day 2 (AA-2 leukemia cells; NOBA 32 μM) [mL⁻¹] | zinc ejection (HIV-1 NC zinc fingers) | infectivity (HIV-1 (MN strain)) |
| --- | --- | --- | --- | --- | --- | --- | --- | --- | --- | --- | --- | --- | --- | --- | --- | --- | --- | --- |
| NC(=O)c1ccc(I)c([N+](=O)[O-])c1 [INO2 BA, 4-iodo-3-nitrobenzamide] | did not prevent apoptosis | 40 | 250000 | 450000 | greatly depressed | effective even when incubated with cells that have been infected | no significant effect | no significant effect |  |  |  |  |  |  |  |  |  |  |
| NC(=O)c1cccc(N=O)c1 [NOBA, 3-nitrosobenzamide] | completely protected |  |  |  |  | requires pre-incubation with cells prior to viral infection | no significant effect | no significant effect | 11 | 4 | 4.2 | > 100 | relatively harmless | 50 | 290000 | 370000 | eject zinc | complete loss of infectivity |
